Marks after values point to notes of the source that are not given here.
Key:
[1] = test system: patients with heart failure with preserved ejection fraction; details: cited from earlier work
[2] = test system: patients with mild-to-moderate essential hypertension; details: LCZ696 100, 200 and 400 mg once daily; cited from earlier work
[3] = test system: elderly patients (≥60 years) with essential hypertension; assay: […] study: 24-hour ambulatory brachial and central blood pressure (Mobil-O-Graph); format: in vivo, human; details: for Change from baseline to 12 weeks, macDBP / Change from baseline to 52 weeks, macDBP: mean ambulatory central diastolic BP; for Change from baseline to 12 weeks, macDBP / Change from baseline to 52 weeks, macDBP / Change from baseline to 12 weeks, macMAP / Change from baseline to 52 weeks, macMAP / Change from baseline to 12 weeks, macPP / Change from baseline to 52 weeks, macPP / Change from baseline to 12 weeks, maMAP / Change from baseline to 52 weeks, maMAP: mean; for Change from baseline to 12 weeks, macMAP / Change from baseline to 52 weeks, macMAP: mean ambulatory central mean arterial pressure; for Change from baseline to 12 weeks, macPP / Change from baseline to 52 weeks, macPP: mean ambulatory central pulse pressure; for Change from baseline to 12 weeks, macSBP / Change from baseline to 52 weeks, macSBP: mean ambulatory central systolic BP; for Change from baseline to 12 weeks, maDBP / Change from baseline to 52 weeks, maDBP: mean ambulatory diastolic BP; for Change from baseline to 12 weeks, maMAP / Change from baseline to 52 weeks, maMAP: mean ambulatory mean arterial pressure; for Change from baseline to 12 weeks, maPP / Change from baseline to 52 weeks, maPP: mean ambulatory pulse pressure; for Change from baseline to 12 weeks, maSBP / Change from baseline to 52 weeks, maSBP: mean ambulatory systolic BP
Description: The study enrolled patient from 5 Dec. 2012 to 8 Apr. 2015.
The 24-hour maCAP and maPWA will be monitored using the oscillometric device, Mobil-0-Graph (IEM, Stolberg, Germany) with integrated ARC solver algorithms (Austrian Institute of Technology, Vienna, Austria). The traditional Mobil-O-Graph ambulatory blood pressure monitoring (ABPM) device has been available for more than a decade and through several product generations.24-27 The actual blood pressure measuring unit was validated according to the British Hypertension Society (BHS) and the European Society of Hypertension (ESH) recommendations.24,26 The method equipped with a GTF to derive aortic pressure waveforms28 is based on brachial readings acquired in the course of the conventional pressure measurement at diastolic level.
During the signal acquisition procedure, the received raw signals are separated into single waves and checked for their plausibility by means of extreme values and corresponding wavelengths using a cross-correlation approach. Poor waveforms are removed from further processing. After applying the GTF to each single waveform, the procedure is repeated.
With respect to legal issues, the Mobil-O-Graph maPWA monitor with integrated ARC solver algorithms holds approvals from CE, FDA, and JPAL (amongst others).

[4] = LCZ696 regimen vs olmesartan regimen, 12 weeks, P < 0.001
[5] = LCZ696 regimen vs olmesartan regimen, 52 weeks

| Structure (SMILES) | Change from baseline to 12 weeks, macDBP ([3]; 12 weeks) | Change from baseline to 52 weeks, macDBP ([3]; 52 weeks) | Change from baseline to 12 weeks, macMAP ([3]; 12 weeks) | Change from baseline to 52 weeks, macMAP ([3]; 52 weeks) | Change from baseline to 12 weeks, macPP ([3]; 12 weeks) | Change from baseline to 52 weeks, macPP ([3]; 52 weeks) | Change from baseline to 12 weeks, macSBP ([3]; 12 weeks) | Change from baseline to 52 weeks, macSBP ([3]; 52 weeks) | Change from baseline to 12 weeks, maDBP ([3]; 12 weeks) | Change from baseline to 52 weeks, maDBP ([3]; 52 weeks) | Change from baseline to 12 weeks, maMAP ([3]; 12 weeks) | Change from baseline to 52 weeks, maMAP ([3]; 52 weeks) | Change from baseline to 12 weeks, maPP ([3]; 12 weeks) | Change from baseline to 52 weeks, maPP ([3]; 52 weeks) | Change from baseline to 12 weeks, maSBP ([3]; 12 weeks) | Change from baseline to 52 weeks, maSBP ([3]; 52 weeks) | other results |
| --- | --- | --- | --- | --- | --- | --- | --- | --- | --- | --- | --- | --- | --- | --- | --- | --- | --- |
| CCCCC(=O)N(Cc1ccc(-c2ccccc2-c2nn[n-]n2)cc1)C(C(=O)[O-])C(C)C.CCCCC(=O)N(Cc1ccc(-c2ccccc2-c2nn[n-]n2)cc1)C(C(=O)[O-])C(C)C.CCOC(=O)C(C)CC(Cc1ccc(-c2ccccc2)cc1)NC(=O)CCC(=O)[O-].CCOC(=O)C(C)CC(Cc1ccc(-c2ccccc2)cc1)NC(=O)CCC(=O)[O-].O.O.O.O.O.[Na+].[Na+].[Na+].[Na+].[Na+].[Na+] [LCZ696, trisodium [3-((1S,3R)-1-biphenyl-4-ylmethyl-3-ethoxycarbonyl-1-butylcarbamoyl) propionate-(S)-3′-methyl-2′-(pentanoyl{2″-(tetrazol-5-ylate)biphenyl-4′-ylmethyl}amino)butyrate]hemipentahydrate] | −7.5 mmHg | −9.0 mmHg | −9.0 mmHg | −10.33 mmHg | −4.4 mmHg | −4.1 mmHg | −12.1 mmHg | −13.0 mmHg | −7.4 mmHg | −8.8 mmHg | −10.0 mmHg | −11.2 mmHg | −5.8 mmHg | −5.3 mmHg | −13.2 mmHg | −14.1 mmHg | reduction of NT-proBNP vs valsartan alone ([1]; at 12 weeks): to a greater extent than valsartan alone; tolerability ([1]; heart failure with preserved ejection fraction): well tolerated; BP reductions vs corresponding doses of valsartan alone (160 and 320 mg) [2]: greater BP reductions than corresponding doses of valsartan alone; tolerability [2]: well tolerated; Between-treatment difference, maDBP, 12 weeks [3, 4]: −2.0 (0.51)* mmHg; Between-treatment difference, maPP, 12 weeks [3, 4]: −2.1 (0.49)* mmHg; Between-treatment difference, maSBP, 12 weeks [3, 4]: −4.1 (0.87)* mmHg; Between-treatment difference, macSBP, 12 weeks [3, 4]: −3.4 (0.84)* mmHg; Between-treatment difference, maDBP, 52 weeks [3, 5]: −0.4 (0.48) mmHg; Between-treatment difference, maPP, 52 weeks [3, 5]: 0.6 (0.50) mmHg; Between-treatment difference, maSBP, 52 weeks [3, 5]: 0.2 (0.82) mmHg; Between-treatment difference, macSBP, 52 weeks [3, 5]: 0.6 (0.79) mmHg; 24-hour ambulatory SBP compared to olmesartan ([3]; after 12-week monotherapy): lowered 24-hour ambulatory SBP compared to olmesartan |
| CCCc1nc(C(C)(C)O)c(C(=O)O)n1Cc1ccc(-c2ccccc2-c2nnn[nH]2)cc1 [Olmesartan, reference compound] | −5.8 mmHg | −9.1 mmHg | −6.75 mmHg | −10.6 mmHg | −2.9 mmHg | −4.6 mmHg | −8.7 mmHg | −13.7 mmHg | −5.5 mmHg | −8.4 mmHg | −7.1 mmHg | −11.1 mmHg | −3.7 mmHg | −5.9 mmHg | −9.1 mmHg | −14.3 mmHg | – |
